Values joined by “and” are separate entries in the source; they are usually repeats but may differ in a detail not shown here. Identical values can stand only once. Toxic doses and inconclusive results are not listed.
System: CD2F1 mice, L1210 leukemia ip, survival T/C
Experiment: NCI In Vivo Anticancer Drug Screen. Data for tumor model L1210 Leukemia (intraperitoneal) in CD2F1 (CDF1) mice
Conditions: higher = longer survival
Procedure, shortened: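 Activity against a transplanted murine tumor was judged by comparing the compound group with a vehicle group. The outcome in the treated animals was divided by that in the controls.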

[1] = endpoint: mean survival time, dose: 100.0 mg/kg/injection, schedule: Q04DX003 (ip), vehicle: saline with Tween-80
[2] = endpoint: mean survival time, dose: 200.0 mg/kg/injection, schedule: Q04DX003 (ip), vehicle: saline with Tween-80
[3] = endpoint: mean survival time, dose: 400.0 mg/kg/injection, schedule: Q04DX003 (ip), vehicle: saline with Tween-80
[4] = endpoint: median survival time, dose: 25.0 mg/kg/injection, schedule: Q01DX009 (ip), vehicle: saline with Tween-80
[5] = endpoint: median survival time, dose: 50.0 mg/kg/injection, schedule: Q01DX009 (ip), vehicle: saline with Tween-80
[6] = endpoint: median survival time, dose: 100.0 mg/kg/injection, schedule: Q01DX009 (ip), vehicle: saline with Tween-80
[7] = endpoint: median survival time, dose: 200.0 mg/kg/injection, schedule: Q01DX009 (ip), vehicle: saline with Tween-80
[8] = endpoint: median survival time, dose: 400.0 mg/kg/injection, schedule: Q01DX009 (ip), vehicle: saline with Tween-80
[9] = endpoint: mean survival time, dose: 100.0 mg/kg/injection, schedule: Q04DX003 (ip), vehicle: saline
[10] = endpoint: mean survival time, dose: 200.0 mg/kg/injection, schedule: Q04DX003 (ip), vehicle: saline
[11] = endpoint: mean survival time, dose: 400.0 mg/kg/injection, schedule: Q04DX003 (ip), vehicle: saline
[12] = endpoint: mean survival time, dose: 100.0 mg/kg/injection, schedule: Q04DX002 (ip), vehicle: saline with Tween-80
[13] = endpoint: mean survival time, dose: 400.0 mg/kg/injection, schedule: Q04DX002 (ip), vehicle: saline with Tween-80
[14] = endpoint: mean survival time, dose: 100.0 mg/kg/injection, schedule: Q01DX009 (ip), vehicle: saline with Tween-80
[15] = endpoint: mean survival time, dose: 200.0 mg/kg/injection, schedule: Q01DX009 (ip), vehicle: saline with Tween-80
[16] = endpoint: mean survival time, dose: 400.0 mg/kg/injection, schedule: Q01DX009 (ip), vehicle: saline with Tween-80

CC(C)N1CC(COc2cccc3ccccc23)OP1(=O)N(CCCl)CCCl (stereo not drawn)
T/C (endpoint: mean survival time, dose: 31.25 mg/kg/injection, schedule: Q01DX001 (ip), vehicle: distilled water + Tween-80): 101 % of control
T/C (endpoint: mean survival time, dose: 62.5 mg/kg/injection, schedule: Q01DX001 (ip), vehicle: distilled water + Tween-80): 101 % of control
T/C (endpoint: mean survival time, dose: 125.0 mg/kg/injection, schedule: Q01DX001 (ip), vehicle: distilled water + Tween-80): 95 % of control and 98 % of control and 101 % of control
T/C (endpoint: mean survival time, dose: 250.0 mg/kg/injection, schedule: Q01DX001 (ip), vehicle: distilled water + Tween-80): 93 % of control and 103 % of control and 111 % of control
T/C (endpoint: mean survival time, dose: 500.0 mg/kg/injection, schedule: Q01DX001 (ip), vehicle: distilled water + Tween-80): 90 % of control and 110 % of control
T/C (endpoint: mean survival time, dose: 1000.0 mg/kg/injection, schedule: Q01DX001 (ip), vehicle: distilled water + Tween-80): 113 % of control and 93 % of control

CN(C)P(=O)(OP(=O)(N(C)C)N(C)C)N(C)C
T/C (endpoint: mean survival time, dose: 2.0 mg/kg/injection, schedule: Q04DX003 (ip), vehicle: saline): 102 % of control
T/C (endpoint: mean survival time, dose: 4.0 mg/kg/injection, schedule: Q04DX003 (ip), vehicle: saline): 98 % of control
T/C (endpoint: mean survival time, dose: 8.0 mg/kg/injection, schedule: Q04DX003 (ip), vehicle: saline): 100 % of control

O=C(O)CC1(O)CCCCC1c1ccccc1 (stereo not drawn)
T/C [1]: 104 % of control
T/C [2]: 105 % of control
T/C [3]: 88 % of control

CCC1(O)C(=O)OCc2c1cc1n(c2=O)Cc2cc3ccc(O)cc3nc2-1 (stereo not drawn)
T/C (endpoint: median survival time, dose: 3.75 mg/kg/injection, schedule: Q04DX002 (ip), vehicle: Klucel (hydroxypropylcellulose) (HPC)): 121 % of control
T/C (endpoint: median survival time, dose: 7.5 mg/kg/injection, schedule: Q04DX002 (ip), vehicle: Klucel (hydroxypropylcellulose) (HPC)): 272 % of control
T/C (endpoint: median survival time, dose: 15.0 mg/kg/injection, schedule: Q04DX002 (ip), vehicle: Klucel (hydroxypropylcellulose) (HPC)): 190 % of control
T/C (endpoint: median survival time, dose: 30.0 mg/kg/injection, schedule: Q04DX002 (ip), vehicle: Klucel (hydroxypropylcellulose) (HPC)): 152 % of control
T/C (endpoint: median survival time, dose: 60.0 mg/kg/injection, schedule: Q04DX002 (ip), vehicle: Klucel (hydroxypropylcellulose) (HPC)): 154 % of control and 357 % of control

[Cl][Pt+2][Cl].[NH-]CC1(C[NH-])CCCCC1
T/C (endpoint: mean survival time, dose: 25.0 mg/kg/injection, schedule: Q04DX003 (ip), vehicle: saline): 95 % of control

O=C1CC2c3[nH]c4ccccc4c3CCN2C2=C1CCCC2 (stereo not drawn)
T/C [1]: 100 % of control
T/C [2]: 103 % of control

COc1cn(C2OC(CO)C(O)C2O)c(=O)nc1N (stereo not drawn)
T/C (endpoint: median survival time, dose: 25.0 mg/kg/injection, schedule: Q01DX005 (ip), vehicle: saline): 114 % of control
T/C (endpoint: median survival time, dose: 50.0 mg/kg/injection, schedule: Q01DX005 (ip), vehicle: saline): 111 % of control
T/C (endpoint: median survival time, dose: 100.0 mg/kg/injection, schedule: Q01DX005 (ip), vehicle: saline): 114 % of control

N#CCS(=O)(=O)c1cccc[n+]1[O-]
T/C [4]: 97 % of control
T/C [5]: 98 % of control
T/C [6]: 98 % of control
T/C [7]: 107 % of control
T/C [8]: 116 % of control

Nc1nc(N2CCCCC2)c2ncn(C3OC(CO)C(O)C3O)c2n1 (stereo not drawn)
T/C (endpoint: mean survival time, dose: 12.5 mg/kg/injection, schedule: Q01DX005 (ip), vehicle: water): 106 % of control
T/C (endpoint: mean survival time, dose: 25.0 mg/kg/injection, schedule: Q01DX005 (ip), vehicle: water): 101 % of control
T/C (endpoint: mean survival time, dose: 50.0 mg/kg/injection, schedule: Q01DX005 (ip), vehicle: water): 112 % of control
T/C (endpoint: mean survival time, dose: 100.0 mg/kg/injection, schedule: Q01DX005 (ip), vehicle: water): 96 % of control
T/C (endpoint: mean survival time, dose: 200.0 mg/kg/injection, schedule: Q01DX005 (ip), vehicle: water): 108 % of control

O=C(O)Cc1ccc(Br)cc1[N+](=O)[O-]
T/C (endpoint: mean survival time, dose: 100.0 mg/kg/injection, schedule: Q01DX001 (ip), vehicle: other): 104 % of control
T/C (endpoint: mean survival time, dose: 200.0 mg/kg/injection, schedule: Q01DX001 (ip), vehicle: other): 101 % of control
T/C (endpoint: mean survival time, dose: 400.0 mg/kg/injection, schedule: Q01DX001 (ip), vehicle: other): 98 % of control

OCCC(c1ccccc1)(c1ccccc1)c1ccccc1
T/C (endpoint: mean survival time, dose: 6.25 mg/kg/injection, schedule: Q01DX009 (ip), vehicle: saline with Tween-80): 113 % of control
T/C (endpoint: mean survival time, dose: 12.5 mg/kg/injection, schedule: Q01DX009 (ip), vehicle: saline with Tween-80): 108 % of control
T/C (endpoint: mean survival time, dose: 25.0 mg/kg/injection, schedule: Q01DX009 (ip), vehicle: saline with Tween-80): 100 % of control

O=C(c1ccccc1)C12CC3CC1C2C3
T/C [9]: 97 % of control
T/C [10]: 100 % of control
T/C [11]: 89 % of control

O=C(O)CCc1[nH]c2ccccc2c1CC(=O)O
T/C [12]: 91 % of control
T/C (endpoint: mean survival time, dose: 200.0 mg/kg/injection, schedule: Q04DX002 (ip), vehicle: saline with Tween-80): 98 % of control
T/C [13]: 119 % of control

CCCCCC(=O)O[C@]1(C(C)=O)CC[C@H]2[C@@H]3CCC4=CC(=O)CC[C@]4(C)[C@H]3CC[C@@]21C
T/C [4]: 109 % of control
T/C [5]: 96 % of control
T/C [6]: 97 % of control
T/C [7]: 95 % of control
T/C [8]: 93 % of control

O=C(N/N=C/c1ccccc1)c1ccc(Cl)c(Cl)c1
T/C (endpoint: mean survival time, dose: 100.0 mg/kg/injection, schedule: Q01DX009 (ip), vehicle: Klucel (hydroxypropylcellulose) (HPC)): 105 % of control
T/C (endpoint: mean survival time, dose: 200.0 mg/kg/injection, schedule: Q01DX009 (ip), vehicle: Klucel (hydroxypropylcellulose) (HPC)): 101 % of control
T/C (endpoint: mean survival time, dose: 400.0 mg/kg/injection, schedule: Q01DX009 (ip), vehicle: Klucel (hydroxypropylcellulose) (HPC)): 101 % of control

CN1C(=O)[N+]2(CCCCC2)N=C1[O-]
T/C [14]: 96 % of control
T/C [9]: 91 % of control
T/C [15]: 102 % of control
T/C [10]: 97 % of control
T/C [16]: 106 % of control
T/C [11]: 95 % of control

S=c1nn[nH]n1-c1ccccc1
T/C (endpoint: mean survival time, dose: 100.0 mg/kg/injection, schedule: Q01DX009 (ip), vehicle: saline): 103 % of control
T/C (endpoint: mean survival time, dose: 200.0 mg/kg/injection, schedule: Q01DX009 (ip), vehicle: saline): 109 % of control

CCOC(=O)Nc1cc2c(c(N)n1)N=C(CN(C)c1ccccc1)CN2
T/C (endpoint: mean survival time, dose: 6.25 mg/kg/injection, schedule: Q01DX009 (ip), vehicle: Klucel (hydroxypropylcellulose) (HPC)): 110 % of control
T/C (endpoint: mean survival time, dose: 12.5 mg/kg/injection, schedule: Q01DX009 (ip), vehicle: Klucel (hydroxypropylcellulose) (HPC)): 87 % of control

C/C=C/c1ccc(OC(C)=O)c(OC)c1
T/C [14]: 100 % of control
T/C [1]: 94 % of control
T/C [15]: 94 % of control
T/C [2]: 100 % of control
T/C [16]: 105 % of control
T/C [3]: 94 % of control

O=C(O)C1CCC(C(=O)O)CC1 (stereo not drawn)
T/C [14]: 95 % of control
T/C [15]: 91 % of control
T/C [16]: 87 % of control

CCOC(OCC)c1nc(N)nc(N)c1-c1ccc(Cl)c(Cl)c1
T/C (endpoint: mean survival time, dose: 134.0 mg/kg/injection, schedule: Q01DX009 (ip), vehicle: other): 123 % of control
T/C (endpoint: mean survival time, dose: 200.0 mg/kg/injection, schedule: Q01DX009 (ip), vehicle: other): 111 % of control
T/C (endpoint: mean survival time, dose: 300.0 mg/kg/injection, schedule: Q01DX009 (ip), vehicle: other): 88 % of control

CC(=O)OCC(C)CCC(=O)C(C)C1C(=O)CC2C3CC=C4CC(OC(C)=O)CCC4(C)C3CCC21C (stereo not drawn)
T/C [14]: 100 % of control
T/C [15]: 97 % of control
T/C [16]: 91 % of control

CC(C)(C)N1CC1
T/C [12]: 102 % of control
T/C [13]: 94 % of control

CCOC(=O)c1cc2c3n(c1=O)CCCC3C(c1ccccn1)OC2=O (stereo not drawn)
T/C [9]: 100 % of control
T/C [10]: 107 % of control
T/C [11]: 102 % of control

CC(=O)NC(CSCC(=O)c1ccccc1)C(=O)O (stereo not drawn)
T/C [1]: 98 % of control
T/C [2]: 102 % of control
T/C [3]: 100 % of control

CCOC(=O)c1cnc(SC)nc1NCc1ccc(Cl)cc1
T/C (endpoint: mean survival time, dose: 100.0 mg/kg/injection, schedule: Q01DX001 (ip), vehicle: saline with Tween-80): 98 % of control
T/C [14]: 100 % of control
T/C (endpoint: mean survival time, dose: 200.0 mg/kg/injection, schedule: Q01DX001 (ip), vehicle: saline with Tween-80): 102 % of control
T/C [15]: 103 % of control
T/C (endpoint: mean survival time, dose: 400.0 mg/kg/injection, schedule: Q01DX001 (ip), vehicle: saline with Tween-80): 94 % of control
T/C [16]: 97 % of control

COc1ccc(OC)c(/C=N/N=C/c2cc(OC)ccc2OC)c1
T/C [1]: 106 % of control
T/C [2]: 94 % of control
T/C [3]: 94 % of control

COC(=O)C12CCc3ccoc3C1CCC1(C)C(C)=CCCC12 (stereo not drawn)
T/C (endpoint: mean survival time, dose: 50.0 mg/kg/injection, schedule: Q04DX002 (ip), vehicle: other): 115 % of control
T/C (endpoint: mean survival time, dose: 100.0 mg/kg/injection, schedule: Q04DX002 (ip), vehicle: other): 107 % of control
T/C (endpoint: mean survival time, dose: 200.0 mg/kg/injection, schedule: Q04DX002 (ip), vehicle: other): 107 % of control

From PubChem BioAssay AID256 (DTP/NCI, 2004)
